According to ChEMBL document CHEMBL5537154, “Smart glypican-3-targeting peptide-chlorin e6 conjugates for targeted photodynamic therapy of hepatocellular carcinoma” (Eur J Med Chem, 2024):
Peptide text beside a SMILES is read from it.

Columns and labels:
[1] = Antiproliferative activity against human HUVEC cells under dark condition by CCK8 assay; assay type: toxicity, cell-based
Huh-7 [2] = test: Antiproliferative activity against human Huh-7 cells under dark condition by CCK8 assay; assay type: functional, cell-based
MCF7 [3] = test: Antiproliferative activity against human MCF7 cells under dark condition by CCK8 assay; assay type: functional, cell-based
MCF7 [4] = test: Antiproliferative activity against human MCF7 cells under 10 J/cm2 light irradiation at 660 nm by CCK8 assay; assay type: functional, cell-based; settings: MCF7, light or radiation study
[5] = Partition coefficient, logP of compound; assay type: physicochemical; settings: octanol/water
HepG2 [6] = test: Antiproliferative activity against human HepG2 cells under dark condition by CCK8 assay; assay type: functional, cell-based
[7] = Photostability of compound under 250 mW/cm2 light irradiation at 660 nm incubated for 10 mins by UV spectrophotometry; assay type: physicochemical; settings: 0.66 µM
[8] = Antiproliferative activity against human HUVEC cells under 10 J/cm2 light irradiation at 660 nm by CCK8 assay; assay type: toxicity, cell-based
HeLa [9] = test: Antiproliferative activity against human HeLa cells under 10 J/cm2 light irradiation at 660 nm by CCK8 assay; assay type: functional, cell-based; settings: light or radiation study
[10] = Aggregation property of compound in PBS; assay type: physicochemical; settings: buffer
HeLa [11] = test: Antiproliferative activity against human HeLa cells under dark condition by CCK8 assay; assay type: functional, cell-based
chymotrypsin = chymotrypsin (Homo sapiens, UniProt P17538+P40313+Q6GPI1+Q99895); test: Stability of compound assessed as chymotrypsin (unknown origin)-mediated compound degradation in PBS at pH 7.4 by measuring half life; assay type: ADME, protein assay
Huh-7 [12] = test: Antiproliferative activity against human Huh-7 cells under 10 J/cm2 light irradiation at 660 nm by CCK8 assay; assay type: functional, cell-based; settings: Huh-7, light or radiation study
HepG2 [13] = test: Antiproliferative activity against human HepG2 cells under 10 J/cm2 light irradiation at 660 nm by CCK8 assay; assay type: functional, cell-based; settings: HepG2, light or radiation study

Molecule | IC50 [1] | IC50 (Huh-7 [2]) | IC50 (MCF7 [3]) | IC50 (MCF7 [4]) | logP [5] | IC50 (HepG2 [6]) | Stability [7] | IC50 [8] | IC50 (HeLa [9]) | Activity [10] | IC50 (HeLa [11]) | half-life (chymotrypsin) | IC50 (Huh-7 [12]) | IC50 (HepG2 [13])
C=Cc1c(C)c2cc3nc(c(CC(=O)O)c4[nH]c(cc5nc(cc1[nH]2)C(C)=C5CC)c(C)c4C(=O)NCCCC(=O)N[C@@H](CCCNC(=N)N)C(=O)N[C@@H](CC(C)C)C(=O)N[C@@H](CC(N)=O)C(=O)N[C@H](C(=O)NCC(=O)NCC(=O)N[C@H](C(=O)N[C@@H](Cc1ccc(O)cc1)C(=O)N[C@@H](Cc1ccccc1)C(=O)N[C@@H](CC(C)C)C(=O)N[C@H](C(=O)N[C@H](C(=O)N[C@@H](CCCNC(=N)N)C(=O)N[C@@H](CCC(N)=O)C(=O)O)[C@@H](C)O)[C@@H](C)O)[C@@H](C)O)C(C)C)[C@@H](CCC(=O)O)[C@@H]3C (HELM PEPTIDE1{[C=Cc1c(C)c2cc3nc(c(CC(=O)O)c4[nH]c(cc5nc(cc1[nH]2)C(C)=C5CC)c(C)c4C(=O)[*:2])[C@@H](CCC(=O)O)[C@@H]3C].[O=C(CCCN[*:1])[*:2]].R.L.N.V.G.G.T.Y.F.L.T.T.R.Q}$$$$V2.0) | > 200000 nM | > 100000 nM | > 100000 nM | 880 nM | 0.8 | > 100000 nM | Stable | 2100 nM | 720 nM | Active | > 100000 nM | 2.4 h | 250 nM | 310 nM
H-DHLASLWWGTEL-OH | – | – | – | – | – | – | – | – | – | – | – | 1.1 h | – | –
